Read-outs that look alike come from different tables or passages of the source.

Results on 15 molecules are retold here after patent publication US20170202219A1, “CLOQUINTOCET SALTS FOR SAFENING PYROXSULAM COMPOSITIONS” (Dow AgroSciences LLC, priority 2016, published 2017).

Data set [1] concerns wild oats (Avena fatua L., AVEFA). Description: Greenhouse evaluation, control of wild oats. Type of data set: in vivo. To be noted: pyroxsulam:cloquintocet (AE) 1:2.1, postemergence spray. The text has this:
A peat based potting soil, Metro-mix 360, (produced by Sun Gro Horticulture Canada CM Ltd) was used as the soil media for this test. Metro-mix 360 is a growing medium consisting of Canadian sphagnum peat moss, coarse perlite, bark ash, starter nutrient charge (with gypsum) and slow release nitrogen and dolomitic limestone. Several seeds of each crop or weed species were planted in 10 cm square pots and top watered twice daily. Plant material was propagated in greenhouse zone E2 at temperatures ranging from 18 to 20° C. and 50 to 60% relative humidity. Natural light was supplemented with 1000-watt metal halide overhead lamps with an average illumination of 500 microeinsteins per square meter per second (μE m^−2 s^−1) photosynthetic active radiation (PAR). Day length was 16 hours. Plant material was top-watered prior to treatment and sub-irrigated after treatment.
Herbicides were applied with a track sprayer manufactured by Allen Machine Works and located in building 306, room E1-483, at the Dow AgroSciences Indianapolis, Ind. Global Headquarters site (9330 Zionsville Road, Indianapolis, Ind., USA). The track sprayer was calibrated to deliver 50 L/ha at 40 psi (262 kPa) pressure utilizing an 8001E even flat fan nozzle tip with a speed of 1.6 mph (2.6 km/h). The nozzle height was 46 cm above the plant canopy. Appropriate amounts of formulated product were added to vials as calculated by the software package ARM8 (Gylling Data Management Inc.). The vials contained a pH 7 phosphate buffer (Fischer Scientific) and the herbicide aliquots were diluted to a total volume of 60 ml. The growth stage of the crop and weed species at application was 2 to 4 leaf (Table 11). The application rates were 0, 17.8 and 37.6 g ai/ha of pyroxsulam for crop tolerance comparisons and 0, 2.35 and 4.7 g ai/ha of pyroxsulam for weed control comparisons. Cloquintocet was applied at a 1:2.1 ratio of pyroxsulam (g ai):cloquintocet (g ae) in all treatments containing the safener. Treatments were replicated 4 times. Plants were returned to the greenhouse after treatment and sub-watered throughout the duration of the experiment. Plant material was fertilized twice weekly with Hoagland's fertilizer solution that is readily available in the greenhouses. Percent visual injury assessments were made on a scale of 0 to 100% as compared to the untreated control plants (where 0 is equal to no injury and 100 is equal to complete death of the plant.
Visual determination of the control of wild oats (Avena fatua L., AVEFA) treated with pyroxsulam alone and with several forms of cloquintocet was conducted. All forms of cloquintocet were applied at a 1:2.1 weight ratio of pyroxsulam:cloquintocet (AE).

The subject of data set [2] is cell membranes.
Data set [3] is described as follows: Water solubility of cloquintocet salts at 20° C.
Data set [4] relates to spring wheat (Triticum aestivum L., TRZAS). The following applies: pyroxsulam:cloquintocet (AE) 1:2.1, postemergence spray.
For data set [5], the system named is durum wheat (Triticum durum L. TRZDU). The following applies: pyroxsulam:cloquintocet (AE) 1:2.1, postemergence spray.
In data set [6] the test system is cell membranes. The source holds these as a separate data set.
The subject of data set [7] is cell membranes. Description: Neutral Red Release (NRR) assay, eye irritation potential of aqueous CQC salt solutions. The following applies: for NRR50, mg ae/mL: aqueous solution of the CQC salt diluted in PBS, NRR50 corrected to CQC acid equivalent concentration.
[8] abbreviates: solubility solution, water, 20° C.

`O=C(O)COc1ccc(Cl)c2cccnc12` [Acid, Cloquintocet]: the “AVEFA Control 21 DAA (% Control)” value in data set [1] (pyroxsulam 2.35 g ai/ha) turned out to be 96 % Control. Moreover, in data set [1] (pyroxsulam 4.7 g ai/ha), the “AVEFA Control 21 DAA (% Control)” value was 99 % Control. In data set [2], the “NRR50, mg ae/mL” value stood at 9 mg ae/mL. For the same molecule, in data set [3] (pH 7 buffer solution, 20° C.), the “Calculated water solubility wt % ai” value is 1.4 wt % ai, the “Density” value came out at 1.0 g/mL, the “Neat pH” value was 5.6 and the “Water Solubility wt % ae” value was 1.4 wt % ae. Further, in data set [3] (pH 7 buffer solution, 20° C., listed as CQC acid), the “Water Solubility wt % ae” value is given as “about 1.4 wt % ae”.
Take `OCCNCCO` [Diethanolamine]: the “AVEFA Control 21 DAA (% Control)” value is reported as 88 % Control in data set [1] (pyroxsulam 2.35 g ai/ha) and 94 % Control in data set [1] (pyroxsulam 4.7 g ai/ha).
On to `CCNCC` [Diethylamine], for which the “AVEFA Control 21 DAA (% Control)” value in data set [1] (pyroxsulam 2.35 g ai/ha) was determined as 88 % Control; in data set [1] (pyroxsulam 4.7 g ai/ha) it was 99 % Control. The “TRZAS Injury 22 DAA (% Injury)” value is reported as 5 % Injury in data set [4] (pyroxsulam 18.8 g ai/ha) and 15 % Injury in data set [4] (pyroxsulam 37.6 g ai/ha). For the same molecule, the “TRZDU Injury 22 DAA (% Injury)” value turned out to be 12 % Injury in data set [5] (pyroxsulam 18.8 g ai/ha) and 18 % Injury in data set [5] (pyroxsulam 37.6 g ai/ha).
`CC(O)CNCC(C)O` (centres unmarked) [Diisopropanolamine]: in data set [3] (setting [8]), the “Density” value was determined as 1.1 g/mL and the “Neat pH” value turned out to be 6.4.
With `CC(C)NC(C)C` [Diisopropylamine], in data set [3], the “Density” value is 1.1 g/mL and the “Neat pH” value stood at 5.9.
As to `CNC` [Dimethylamine], the “AVEFA Control 21 DAA (% Control)” value is 88 % Control in data set [1] (pyroxsulam 2.35 g ai/ha) and 90 % Control in data set [1] (pyroxsulam 4.7 g ai/ha). In addition, the “TRZAS Injury 22 DAA (% Injury)” value in data set [4] (pyroxsulam 18.8 g ai/ha) and in data set [4] (pyroxsulam 37.6 g ai/ha) was 11 % Injury throughout. Further, the “TRZDU Injury 22 DAA (% Injury)” value in data set [5] (pyroxsulam 18.8 g ai/ha) stood at 9 % Injury; in data set [5] (pyroxsulam 37.6 g ai/ha), 15 % Injury. The “Density” value in data set [3] is recorded as 1.2 g/mL. Moreover, the “Neat pH” value in data set [3] came to 6.
Take `CC(O)CN` (centres unmarked) [Isopropanolamine]: the “AVEFA Control 21 DAA (% Control)” value was found to be 80 % Control in data set [1] (pyroxsulam 2.35 g ai/ha) and 90 % Control in data set [1] (pyroxsulam 4.7 g ai/ha). The “NRR50 (% v/v)” value in data set [6] was determined as 29 % v/v. Besides, the “NRR50, mg ae/mL” value in data set [6] is 56 mg ae/mL. The figures for the “TRZAS Injury 22 DAA (% Injury)” value in data set [4] (pyroxsulam 18.8 g ai/ha) and in data set [4] (pyroxsulam 37.6 g ai/ha) were 2 % Injury and 20 % Injury, respectively. The “TRZDU Injury 22 DAA (% Injury)” value in data set [5] (pyroxsulam 18.8 g ai/ha) came to 9 % Injury; in data set [5] (pyroxsulam 37.6 g ai/ha), 12 % Injury. Also, the “Density” value in data set [3] was determined as 1.1 g/mL. In addition, the “Neat pH” value in data set [3] (setting [8]) was 7.4.
In the case of `CC(C)N` [Isopropylamine], the results for the “AVEFA Control 21 DAA (% Control)” value in data set [1] (pyroxsulam 2.35 g ai/ha) and in data set [1] (pyroxsulam 4.7 g ai/ha) were 90 % Control and 99 % Control, respectively. In addition, the “Density” value in data set [3] worked out at 1.1 g/mL. Moreover, the “Neat pH” value in data set [3] was found to be 5.7.
As for `NCCO` [Monoethanolamine], in data set [3] (setting [8]), the “Density” value came to 1.1 g/mL and the “Neat pH” value amounted to 6.3.
For the molecule `CN(C)CCO` [N,N-dimethylethanolamine], the “Neat pH” value in data set [3] (setting [8]) is reported as 5.7.
Turning to `COc1cc(OC)n2nc(NS(=O)(=O)c3c(C(F)(F)F)ccnc3OC)nc2n1` [Pyroxsulam, N-(5,7-dimethoxy [1,2,4]triazolo [1,5-a]pyrimidin-2-yl)-2-methoxy-4-(trifluoromethyl)pyridine-3-sulfonamide], the “AVEFA Control 21 DAA (% Control)” value is on record as 86 % Control in data set [1] (pyroxsulam 2.35 g ai/ha) and 98 % Control in data set [1] (pyroxsulam 4.7 g ai/ha).
On to `CCCCCCCCCCCCOS(=O)(=O)[O-].[Na+]` [SDS, Sodium dodecyl sulfate], for which the “NRR assay result of positive control” value in data set [7] (5 mg/ml, two independent assay replicates) is “positive”.
In the case of `CCCCCC(C)OC(=O)COc1ccc(Cl)c2cccnc12` (centres unmarked) [mexyl, cloquintocet-mexyl, reference compound], the “AVEFA Control 21 DAA (% Control)” value in data set [1] (pyroxsulam 2.35 g ai/ha) amounted to 71 % Control; in data set [1] (pyroxsulam 4.7 g ai/ha), 84 % Control.
Ammonium [reference compound]: in data set [3] (setting [8]), the “Density” value is reported as 1.0 g/mL and the “Neat pH” value was 5.7. Moreover, the “NRR50, mg ae/mL” value in data set [7] was determined as 3 mg ae/mL.
On to cloquintocet choline salt, for which the “AVEFA Control 21 DAA (% Control)” value in data set [1] (pyroxsulam 2.35 g ai/ha) is listed as 94 % Control; in data set [1] (pyroxsulam 4.7 g ai/ha), 99 % Control. Also, the “TRZAS Injury 22 DAA (% Injury)” value in data set [4] (pyroxsulam 18.8 g ai/ha) was found to be 6 % Injury; in data set [4] (pyroxsulam 37.6 g ai/ha), 21 % Injury. The “TRZDU Injury 22 DAA (% Injury)” value in data set [5] (pyroxsulam 18.8 g ai/ha) is recorded as 9 % Injury; in data set [5] (pyroxsulam 37.6 g ai/ha), 12 % Injury. Further, in data set [3], the “Density” value worked out at 1.1 g/mL. Also, the “Neat pH” value in data set [3] turned out to be 6.8. Besides, the “NRR50, mg ae/mL” value in data set [7] stood at 213 mg ae/mL.
